Data on 7 compounds can be found in patent publication US8962657B2, “Aryl derivatives and uses thereof” (Jacobus Pharmaceutical Company, Inc., priority 2012, dated 2015).

The subject of the assay is Plasmodium berghei (KBG-173 strain). Put plainly: Plasmodium berghei assay in vivo (modified Thompson Test), survival of infected mice. Also on record: species or system Charles River CD-1 mice. The conditions noted are these: oral bid on days 3, 4 and 5; for Average Days Survival: 31 day experiment. The method, then: In vivo antimalarial activity was tested in male or female Charles River CD-1 mice that were 4-5 weeks old and weighed 20-25 g They were housed in groups of 3 or 4 in standard plastic cages with wire tops, Bed-o-cob® bedding, 12 hr/day of light, and maintained at 75° F. They were fed a standard Ralston Purina mouse chow and the cages and bottles were changed twice a week. Test compounds were ground in a mortar and pestle and diluted with enough vehicle to give a volume of 10 mL/kg of mouse weight. The oral doses were prepared in 0.5% hydroxyethylcellulose (Union Carbide Corp. WP 4400)/0.1% Tween-80 (Fisher Scientific T164-500). The amount of drug was calculated on the free base weight. The mice were infected intraperitoneally on day 0 with 5×10^4 erythrocytes parasitized with Plasmodium berghei (KBG-173 strain) from a donor mouse having a parasitemia between 5-10%. On days 3, 4 and 5 the test compounds were administered bid, spaced 6 hr apart, by oral gavage to the mice. Activity was measured by survival, with full activity defined as all animals living at day 31. Partial activity is defined as days of increased survival versus the infected non-treated controls. This in vivo model is a modification of the Thompson Test. For further description see Ager, A. L, Jr. Rodent Malaria Models. In Handbook of Experimental Pharmacology: Antimalarial Drugs. 1. 68/1; Peters, W., Richards, W. H. G., Eds.: Springer-Verlag: Berlin, 1984, pp. 231-33.

Where [1] appears, read: Plasmodium berghei, 744 h, 2 mg/kg/day, read-out: Number of mice alive at day 31 (converted).
The mark [2] stands for this setting: Plasmodium berghei, 744 h, 4 mg/kg/day, read-out: Number of mice alive at day 31 (converted).
The mark [3] stands for this setting: Plasmodium berghei, 744 h, 8 mg/kg/day, read-out: Number of mice alive at day 31 (converted).
[4] abbreviates: Plasmodium berghei, 744 h, 16 mg/kg/day, read-out: Number of mice alive at day 31 (converted).
[5] abbreviates: Plasmodium berghei, 744 h, 32 mg/kg/day, read-out: Number of mice alive at day 31 (converted).
Setting [6] is: Plasmodium berghei, 744 h, 64 mg/kg/day, read-out: Number of mice alive at day 31 (converted).

Marks after values point to notes of the source that are not given here.

`CC(C)(C)NCc1cc(-c2ccc(Cl)cc2)cc(-c2ccc(Cl)c(Cl)c2)c1O.Cl` [Example 39, 5′-((tert-Butylamino)methyl)-3″,4,4″-trichloro-[1,1′:3′,1″-terphenyl]-4′-ol hydrochloride]: the “Average Days Survival” value by setting is: (2 mg/kg/day) >23 days; (4 mg/kg/day) >31* Days; (8 mg/kg/day) >31* Days; (16 mg/kg/day) >31* Days. The responders at 2 mg/kg under setting [1] is 14.3%. Under setting [2], the responders at 4 mg/kg was 100%. Further, under setting [3], the responders at 8 mg/kg is 100%. Further, the responders at 16 mg/kg under setting [4] is 100%.

Consider `CC1(NCc2cc(C(C)(C)C)cc(-c3ccc(OC(F)(F)F)cc3)c2O)CCC1.Cl` [Example 18, 5-(tert-Butyl)-3-(((1-methylcyclobutyl)amino)methyl)-4′-(trifluoromethoxy)-[1,1′-biphenyl]-2-ol hydrochloride], for which the “Average Days Survival” value is, setting by setting: (4 mg/kg/day) 15.7 days; (8 mg/kg/day) >31* Days; (16 mg/kg/day) >31* Days; (32 mg/kg/day) >31* Days. For the same compound, the responders at 4 mg/kg under setting [2] was 0%. Besides, under setting [3], the responders at 8 mg/kg was 100%. Under setting [4], the responders at 16 mg/kg was 100%. Besides, the responders at 32 mg/kg under setting [5] was 100%.

With `CC(C)(C)NCc1cc(C(C)(C)C)cc(-c2ccc(OC(F)(F)F)cc2)c1O` [Example 5, 5-(tert-Butyl)-3-((tert-butylamino)methyl)-4′-(trifluoromethoxy)-[1,1′-biphenyl]-2-ol], the “Average Days Survival” value is >19.3 days (4 mg/kg/day); >31* Days (8 mg/kg/day); >31* Days (16 mg/kg/day); >31* Days (32 mg/kg/day); >31* Days (64 mg/kg/day); >31* Days (128 mg/kg/day). In addition, the “Average Days Survival” value (256 mg/kg/day) was >31* Days. Also, under setting [2], the responders at 4 mg/kg is 42.9%. The responders at 8 mg/kg under setting [3] is 100%. The responders at 16 mg/kg under setting [4] was 100%. Further, the responders at 32 mg/kg under setting [5] was 100%. Also, the responders at 64 mg/kg under setting [6] was 100%. Also, the responders at 128 mg/kg (Plasmodium berghei, 744 h, 128 mg/kg/day, read-out: Number of mice alive at day 31 (converted)) is 100%. For the same compound, under “Plasmodium berghei, 744 h, 256 mg/kg/day, read-out: Number of mice alive at day 31 (converted)”, the responders at 256 mg/kg is 100%.

Turning to `CC(C)(C)NCc1cc(C(C)(C)C)cc(-c2ccc(C(F)(F)F)cc2)c1O.Cl` [Example 22, 5-(tert-Butyl)-3-((tert-butylamino)methyl)-4′-(trifluoromethyl)-[1,1′-biphenyl]-2-ol hydrochloride], the “Average Days Survival” value (2 mg/kg/day) was >16.8 days; the “Average Days Survival” value (4 mg/kg/day) is >24 days; the “Average Days Survival” value (8 mg/kg/day) is listed as >31* Days; the “Average Days Survival” value (16 mg/kg/day) was >31* Days; the “Average Days Survival” value (32 mg/kg/day) was >31* Days; the “Average Days Survival” value (64 mg/kg/day) is >31* Days. In addition, the responders at 2 mg/kg under setting [1] was 28.6%. For the same compound, the responders at 4 mg/kg under setting [2] is 85.7%. Further, the responders at 8 mg/kg under setting [3] was 100%. The responders at 16 mg/kg under setting [4] was 100%. Moreover, under setting [5], the responders at 32 mg/kg is 100%. Moreover, the responders at 64 mg/kg under setting [6] is 100%.

Regarding `CC(C)(C)NCc1cc(C(C)(C)C)cc(-c2ccc(F)c(Cl)c2)c1O.Cl` [Example 24, 5-(tert-Butyl)-3-((tert-butylamino)methyl)-3′-chloro-4′-fluoro-[1,1′-biphenyl]-2-ol hydrochloride], the “Average Days Survival” value (2 mg/kg/day) is >17 days; the “Average Days Survival” value (4 mg/kg/day) is >14.5 days; the “Average Days Survival” value (8 mg/kg/day) is >16 days; the “Average Days Survival” value (16 mg/kg/day) is >31* Days; the “Average Days Survival” value (32 mg/kg/day) was >31* Days. The responders at 2 mg/kg under setting [1] was 42.9%. The responders at 4 mg/kg under setting [2] was 71.4%. The responders at 8 mg/kg under setting [3] was 85.7%. In addition, under setting [4], the responders at 16 mg/kg was 100%. Under setting [5], the responders at 32 mg/kg is 100%.

In the case of `CC(C)(C)NCc1cc(C(C)(C)C)cc(-c2ccc(Cl)c(Cl)c2)c1O.Cl` [Example 19, 5-(tert-Butyl)-3-((tert-butylamino)methyl)-3′,4′-dichloro-[1,1′-biphenyl]-2-ol hydrochloride], the “Average Days Survival” value (1 mg/kg/day) is >19.6 days; the “Average Days Survival” value (2 mg/kg/day) is >7 days; the “Average Days Survival” value (4 mg/kg/day) is recorded as >31* Days; the “Average Days Survival” value (8 mg/kg/day) is >31* Days; the “Average Days Survival” value (16 mg/kg/day) is >31* Days. For the same compound, the responders at 1 mg/kg (Plasmodium berghei, 744 h, 1 mg/kg/day, read-out: Number of mice alive at day 31 (converted)) was 28.6%. Also, the responders at 2 mg/kg under setting [1] is 85.7%. Also, under setting [2], the responders at 4 mg/kg is 100%. In addition, the responders at 8 mg/kg under setting [3] is 100%. The responders at 16 mg/kg under setting [4] is 100%.

For the compound `CC(C)(C)NCc1cc(C(C)(C)C)cc(-c2cc(C(F)(F)F)cc(C(F)(F)F)c2)c1O.Cl` [Example 16, 5-(tert-Butyl)-3-((tert-butylamino)methyl)-3′,5′-bis(trifluoromethyl)-[1,1′-biphenyl]-2-ol hydrochloride], the “Average Days Survival” value (2 mg/kg/day) is >20.5 days; the “Average Days Survival” value (4 mg/kg/day) is >17 days; the “Average Days Survival” value (8 mg/kg/day) was >31* Days; the “Average Days Survival” value (16 mg/kg/day) was >31* Days; the “Average Days Survival” value (32 mg/kg/day) was >31* Days. The responders at 2 mg/kg under setting [1] is 42.9%. For the same compound, under setting [2], the responders at 4 mg/kg is 85.7%. For the same compound, under setting [3], the responders at 8 mg/kg was 100%. In addition, the responders at 16 mg/kg under setting [4] is 100%. For the same compound, under setting [5], the responders at 32 mg/kg is 100%.
